Data set [1] concerns MV4-11 cells. Nature of the data set: MV4-11 Cell Cytotoxicity Assay. It is filed as cell-based, human. The conditions noted are these: CCK-8; for IC50 at 72 h: human, MV4-11 cells. The text has this: % Inhibition=100−(D−B)/(S−B)*100%.
S: The absorbance of the maximum (cells with DMSO)
B: The absorbance of the minimum (medium with DMSO)

Data set [2] addresses HSP90α (Homo sapiens, UniProt P07900). Nature of the data set: HSP90α Binding Fluorescent Polarization (FP) Assay. The conditions noted are these: competition with FITC-geldanamycin; read-out: HSP90 Binding Potency. In outline:
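Duplicate wells held BSA buffer, FITC-geldanamycin tracer, compound (3-fold dilution plate spanning 40 μM–2.0 nM) and recombinant protein diluted to 28 μg/ml before addition. Polarization read at 30, 60 and 120 min, 25 °C. Background-corrected mP values gave IC50 through a four-parameter inhibitor-response fit.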

Data set [3] deals with T1, BRD4 (BD1+BD2) (Homo sapiens, UniProt O60885).
T1 construct: 1.8 μg/ml recombinant BRD4 (BD1+BD2 domains) protein
The note with it: read-out: BRD4 Binding Potency.

As for `Cc1sc2c(c1C)C(c1ccc(Cl)cc1)=N[C@@H](CC(=O)N1CCC(CN3CCC(Cc4ccc(-n5c(O)nnc5-c5cc(C(C)C)c(O)cc5O)cc4)CC3)CC1)c1nnc(C)n1-2` [Compound 94, (S)-2-(4-(4-chlorophenyl)-2,3,9-trimethyl-6H-thieno[3,2-f][1,2,4]triazolo[4,3-a][1,4]diazepin-6-yl)-1-(4-((4-(4-(3-(2,4-dihydroxy-5-isopropylphenyl)-5-hydroxy-4H-1,2,4-triazol-4-yl)benzyl)piperidin-1-yl)methyl)piperidin-1-yl)ethan-1-one, trifluoroacetic acid], in data set [1], the IC50 at 72 h is under 100 nM. For the same compound, the IC50 in data set [2] was under 100 nM; in data set [3] it was 100 to 1000 nM.
In turn, `Cc1sc2c(c1C)C(c1ccc(Cl)cc1)=N[C@@H](CC(=O)N1CCN(Cc3ccc4c(c3)CN(C(=O)c3ccc(O)cc3O)C4)CC1)c1nnc(C)n1-2` [Compound 143, (S)-2-(4-(4-chlorophenyl)-2,3,9-trimethyl-6H-thieno[3,2-f][1,2,4]triazolo[4,3-a][1,4]diazepin-6-yl)-1-(4-((2-(2,4-dihydroxybenzoyl)isoindolin-5-yl)methyl)piperazin-1-yl)ethan-1-one] showed an IC50 at 72 h in data set [1] of over 1000 nM. The IC50 was 100 to 1000 nM in data set [2] and over 1000 nM in data set [3].
In turn, `Cc1sc2c(c1C)C(c1ccc(Cl)cc1)=N[C@@H](CC(=O)N1CCC(CN3CCN(Cc4ccc(-n5c(C(N)=O)nnc5-c5cc(C(C)C)c(O)cc5O)cc4)CC3)CC1)c1nnc(C)n1-2` [Compound 109, (S)-4-(4-((4-((1-(2-(4-(4-chlorophenyl)-2,3,9-trimethyl-6H-thieno[3,2-f][1,2,4]triazolo[4,3-a][1,4]diazepin-6-yl)acetyl)piperidin-4-yl)methyl)piperazin-1-yl)methyl)phenyl)-5-(2,4-dihydroxy-5-isopropylphenyl)-4H-1,2,4-triazole-3-carboxamide, trifluoroacetic acid] registered an IC50 at 72 h in data set [1] of under 100 nM. The IC50 in data set [2] is 100 to 1000 nM; in data set [3], under 100 nM.
The compound `Cc1sc2c(c1C)C(c1ccc(Cl)cc1)=N[C@@H](CC(=O)NCCOCCN1CCC(Cc3ccc(-n4c(O)nnc4-c4cc(C(C)C)c(O)cc4O)cc3)CC1)c1nnc(C)n1-2` [Compound 37, 2-((6S)-4-(4-chlorophenyl)-2,3,9-trimethyl-6H-thieno[3,2-f][1,2,4]triazolo[4,3-a][1,4]diazepin-6-yl)-N-(2-(2-(4-(4-(3-(2,4-dihydroxy-5-isopropylphenyl)-5-hydroxy-4H-1,2,4-triazol-4-yl)benzyl)piperidin-1-yl)ethoxy)ethyl)acetamide, trifluoroacetic acid] came in with an IC50 at 72 h in data set [1] of 100 to 1000 nM. Besides, the IC50 in data set [2] and in data set [3] was under 100 nM throughout.
As to `CCN(CC)CCNC(=O)c1nnc(-c2ccc(O)cc2O)n1-c1ccc(CN2CCN(CC3CCN(C(=O)C[C@@H]4N=C(c5ccc(Cl)cc5)c5c(sc(C)c5C)-n5c(C)nnc54)CC3)CC2)cc1` [Compound 111, (S)-4-(4-((4-((1-(2-(4-(4-chlorophenyl)-2,3,9-trimethyl-6H-thieno[3,2-f][1,2,4]triazolo[4,3-a][1,4]diazepin-6-yl)acetyl)piperidin-4-yl)methyl)piperazin-1-yl)methyl)phenyl)-N-(2-(diethylamino)ethyl)-5-(2,4-dihydroxyphenyl)-4H-1,2,4-triazole-3-carboxamide, trifluoroacetic acid], in data set [1], the IC50 at 72 h is under 100 nM. Moreover, the IC50 in data set [2] was 100 to 1000 nM; in data set [3] it was under 100 nM.
On to `COc1cccc(-c2cc(C(=O)Nc3ccc(-c4ccc(OC5CCN(CC[C@@H]6N=C(c7ccc(Cl)cc7)c7c(sc(C)c7C)-n7c(C)nnc76)CC5)cc4OCCN(C)C)cc3)ccc2OC)c1` [Compound 139, (S)—N-(4′-((1-(2-(4-(4-chlorophenyl)-2,3,9-trimethyl-6H-thieno[3,2-f][1,2,4]triazolo[4,3-a][1,4]diazepin-6-yl)ethyl)piperidin-4-yl)oxy)-2′-(2-(dimethylamino)ethoxy)-[1,1′-biphenyl]-4-yl)-3′,6-dimethoxy-[1,1′-biphenyl]-3-carboxamide], for which the values for the IC50 in data set [1] (72 hr), in data set [2] and in data set [3] were 100 to 1000 nM, over 1000 nM and 100 to 1000 nM, respectively.
In the case of `Cc1sc2c(c1C)C(c1ccc(Cl)cc1)=N[C@@H](CC(=O)NCc1ccc(CN3CCC(Cc4ccc(-n5c(C(=O)NCC(F)(F)F)nnc5-c5cc(C(C)C)c(O)cc5O)cc4)CC3)cc1)c1nnc(C)n1-2` [Compound 96, (S)-4-(4-((1-(4-((2-(4-(4-chlorophenyl)-2,3,9-trimethyl-6H-thieno[3,2-f][1,2,4]triazolo[4,3-a][1,4]diazepin-6-yl)acetamido)methyl)benzyl)piperidin-4-yl)methyl)phenyl)-5-(2,4-dihydroxy-5-isopropylphenyl)-N-(2,2,2-trifluoroethyl)-4H-1,2,4-triazole-3-carboxamide, trifluoroacetic acid], the IC50 at 72 h in data set [1] was under 100 nM. For the same compound, the IC50 in data set [2] is 100 to 1000 nM; in data set [3] it was under 100 nM.
In data set [1], `Cc1sc2c(c1C)C(c1ccc(Cl)cc1)=N[C@@H](CC(=O)N1CCC(N3CCN(Cc4ccc(-n5c(O)nnc5-c5cc(C(C)C)c(O)cc5O)cc4)CC3)CC1)c1nnc(C)n1-2` [Compound 42, (S)-2-(4-(4-chlorophenyl)-2,3,9-trimethyl-6H-thieno[3,2-f][1,2,4]triazolo[4,3-a][1,4]diazepin-6-yl)-1-(4-(4-(4-(3-(2,4-dihydroxy-5-isopropylphenyl)-5-hydroxy-4H-1,2,4-triazol-4-yl)benzyl)piperazin-1-yl)piperidin-1-yl)ethan-1-one, trifluoroacetic acid] showed an IC50 at 72 h of under 100 nM. The IC50 in data set [2] and in data set [3] was 100 to 1000 nM each time.
In turn, `CCn1c(=O)/c(=C2\Sc3ccccc3N2C)s/c1=C\c1cccc[n+]1CCNC(=O)C[C@@H]1N=C(c2ccc(Cl)cc2)c2c(sc(C)c2C)-n2c(C)nnc21` [Compound 8, 1-(2-(2-((6S)-4-(4-chlorophenyl)-2,3,9-trimethyl-6H-thieno[3,2-f][1,2,4]triazolo[4,3-a][1,4]diazepin-6-yl)acetamido)ethyl)-2-((Z)-((E)-3-ethyl-5-(3-methylbenzo[d]thiazol-2(3H)-ylidene)-4-oxothiazolidin-2-ylidene)methyl)pyridin-1-ium] gave an IC50 at 72 h in data set [1] of over 1000 nM. For the same compound, the figures for the IC50 in data set [2] and in data set [3] were over 1000 nM and 100 to 1000 nM, respectively.
With `Cc1sc2c(c1C)C(c1ccc(Cl)cc1)=N[C@@H](CC(=O)N1CCC(CN3CCN(Cc4ccc(-n5c(O)nnc5-c5ccc(O)cc5O)cc4)CC3)CC1)c1nnc(C)n1-2` [Compound 4, 2-((6S)-4-(4-chlorophenyl)-2,3,9-trimethyl-6H-thieno[3,2-f][1,2,4]triazolo[4,3-a][1,4]diazepin-6-yl)-1-(4-((4-(4-(3-(2,4-dihydroxyphenyl)-5-hydroxy-4H-1,2,4-triazol-4-yl)benzyl)piperazin-1-yl)methyl)piperidin-1-yl)ethanone, trifluoroacetic acid], the IC50 at 72 h in data set [1] lay in the range of 100 to 1000 nM. Moreover, the IC50 in data set [2] was over 1000 nM; in data set [3], under 100 nM.
In the same order, the values of `Cc1sc2c(c1C)C(c1ccc(Cl)cc1)=NC(CC(=O)N[C@H](C)c1ccc(CN3CCN(Cc4ccc(-n5c(O)nnc5-c5cc(C(C)C)c(O)cc5O)cc4)CC3)cc1)c1nnc(C)n1-2` (stereo in doubt) [Compound 70, 2-((6S)-4-(4-chlorophenyl)-2,3,9-trimethyl-6H-thieno[3,2-f][1,2,4]triazolo[4,3-a][1,4]diazepin-6-yl)-N—((R)-1-(4-((4-(4-(3-(2,4-dihydroxy-5-isopropylphenyl)-5-hydroxy-4H-1,2,4-triazol-4-yl)benzyl)piperazin-1-yl)methyl)phenyl)ethyl)acetamide, trifluoroacetic acid] are under 100 nM, 100 to 1000 nM and 100 to 1000 nM.
On the same counts, the results for `Cc1sc2c(c1C)C(c1ccc(Cl)cc1)=N[C@@H](CC(=O)N[C@H](C)c1cccc(CN3CCC(Cc4ccc(-n5c(O)nnc5-c5cc(C(C)C)c(O)cc5O)cc4)CC3)c1)c1nnc(C)n1-2` [Compound 81, 2-((S)-4-(4-chlorophenyl)-2,3,9-trimethyl-6H-thieno[3,2-f][1,2,4]triazolo[4,3-a][1,4]diazepin-6-yl)-N—((R)-1-(3-((4-(4-(3-(2,4-dihydroxy-5-isopropylphenyl)-5-hydroxy-4H-1,2,4-triazol-4-yl)benzyl)piperidin-1-yl)methyl)phenyl)ethyl)acetamide, trifluoroacetic acid] are under 100 nM, 100 to 1000 nM and 100 to 1000 nM.
`CCc1cc(-c2nnc(C(=O)NCCN3CCCCC3)n2-c2ccc(CN3CCN(CC4CCN(C(=O)C[C@@H]5N=C(c6ccc(Cl)cc6)c6c(sc(C)c6C)-n6c(C)nnc65)CC4)CC3)cc2)c(O)cc1O` [Compound 117, (S)-4-(4-((4-((1-(2-(4-(4-chlorophenyl)-2,3,9-trimethyl-6H-thieno[3,2-f][1,2,4]triazolo[4,3-a][1,4]diazepin-6-yl)acetyl)piperidin-4-yl)methyl)piperazin-1-yl)methyl)phenyl)-5-(5-ethyl-2,4-dihydroxyphenyl)-N-(2-(piperidin-1-yl)ethyl)-4H-1,2,4-triazole-3-carboxamide, trifluoroacetic acid] had an IC50 at 72 h in data set [1] of under 100 nM. For the same compound, the figures for the IC50 in data set [2] and in data set [3] were 100 to 1000 nM and under 100 nM, respectively.

Values taken from patent US20220168427A1 (Ranok Therapeutics (Hangzhou) Co. Ltd., priority 2019, published 2022).
